# Measurements from publication PMC7211195 (Investigational New Drugs, 2019).
# Where “and” joins values, the source holds several entries; their conditions need not be identical. Equal entries are not always repeated.
# Experiment: Lapatinib pharmacokinetics and uptake in rat brain tissue (BT);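 as to BT corr (BT homogenate corrected), single rat: brain concentration corrected for residual brain blood by the Fridén method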;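 as to BT corr (BT homogenate), single rat: brain concentration corrected for residual brain blood by the Fridén method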
# Assay type: in vivo, rats
# Settings: for BT corr (BT homogenate), S / BT corr (BT homogenate), single rat: lapatinib 100 mg/kg + elacridar; for BT corr (BT homogenate corrected), single rat: lapatinib p.o. 100 mg/kg alone, 100 mg/kg
# Experimental: This study was conducted on rats, which are a promising model to predict P-gp-based drug-drug interactions at the human BBB [15]. The animals were allowed to acclimate for one week before the beginning of the experiments. Adult male Wistar-strain rats (weight 470–525 g) were used in the study. The animals were maintained under standard breeding conditions with a 12/12 h light-dark cycle (lights on at 6.00 a.m., lights off at 6.00 p.m.) at constant room temperature (23 ± 2 °C), relative humidity (55 ± 10%) and ad libitum access to food and water. The experimental protocol for this study was reviewed and approved by the Local Ethics Committee. To obtain consistent data, the study was based on the required minimum number of animals and observation time. […] Three rats were used at each time point (n = 3). In total, the research was conducted on 66 animals (n = 33 in the experimental group and n = 33 in the control group).
# Elacridar was freshly dissolved in a vehicle at an initial concentration of 20 mg/mL. […] A volume of 80 μL of blood was collected from each rat by cutting off a piece of its tail. The blood samples were collected into heparinized test tubes at the following time points: […], and they were immediately centrifuged at 2880 g for 10 min at 4 °C. The anaesthetized rats (anaesthetized by intramuscular administration of 50 mg/kg ketamine and 10 mg/kg xylazine) were prepared for cisterna magna puncture. The hair over the puncture was removed and the skin was disinfected with alcohol. The animals were placed in a recumbent position with an elevated rear part of the body. The animals’ heads were slightly flexed and immobilized with the operator’s left hand. The space between the occiput rostrally and the atlas (C1) of the spinal column caudally was gently palpated with the left thumb. A 0.7 × 20 G needle with polyethylene tubing (Terumo Poland, Warsaw, Poland) was gently inserted at an approximate angle of 80–90° through the skin with the operator’s right hand into the midsagittal region. The moment that dura mater perforation was perceptible, a small amount of CSF was found in the needle tubing. To sample additional CSF, a 1 mL insulin syringe (Becton Dickinson, Warsaw, Poland) was used to collect 80–120 μL of CSF by very gentle aspiration. Only clear CSF was collected for further analysis. […] The animals’ brains were immediately dissected, washed in 0.9% NaCl and divided along the longitudinal axis. One of the brain hemispheres was again rinsed three times with 5 mL of 0.9% NaCl, weighed and homogenized with 0.9% NaCl (4 mL per 1 g of BT) in an Ultra-Turrax homogenizer (Witko, Łódź, Poland). The homogenate was then centrifuged at 4500 g for 10 min. All samples of the rat BP, CSF, and BT homogenate supernatant were stored at −80 °C until analysis.
# The chromatographic analysis was conducted using a 1260 Infinity system (Agilent Technologies, Santa Clara, USA) equipped with a Kinetex® C18 column (50 × 4.6 mm, 2.6 μm, Phenomenex, Torrance, USA), which was maintained at 35 °C. The mobile phase consisted of 0.1% formic acid (v/v) in water with 5 mM ammonium formate (solvent A) and acetonitrile with 10% phase A (v/v, solvent B). The analyte and internal standard (IS, erlotinib) were eluted using a gradient run of 10 min as follows: 95% A at 0–2 min; 95%–5% A at 2–4 min; 5% A at 4–5 min; 5%–95% A at 5–6 min; 95% A at 6–10 min. The flow rate and injection volume were set at 0.7 mL/min and 10 μL, respectively. The needle was washed for 30 s in a mixture of acetonitrile, methanol, isopropanol, water, and formic acid (50:20:15:15:0.25, v/v/v/v/v).
compound,measurement,setting,value
"CS(=O)(=O)CCNCc1ccc(-c2ccc3ncnc(Nc4ccc(OCc5cccc(F)c5)c(Cl)c4)c3c2)o1 [lapatinib, N-{3-Chloro-4-[(3-fluorobenzyl)oxy]phenyl}-6-[5-({[2-(methylsulfonyl)ethyl]amino}methyl)-2-furyl]-4-quinazolinamine]",AUC0-∞ increase by elacridar,BT,1.9 times
same,Cmax increase in IE+L vs control,BT,1.55 fold and 1.5 fold
same,Kp decrease in IL+E group vs control,BT,25%
same,t0.5 longer in the presence of elacridar,BT,2.5 times
same,AUC0-t increased in IE+L,"BT, IE+L vs IIL group",92.6%
same,AUC0-∞ increase with elacridar,"BT, IE+L vs IIL group",86.5%
same,Cmax increase with elacridar,"BT, IE+L vs IIL group",54.7%
same,AUMC0-t,"brain tissue, lapatinib 100 mg/kg oral + 5 mg/kg elacridar (IE+L), first AUMC0-t line (r32)","16,040.19 ± 2981.02 ng × h^2/mL"
same,AUMC0-t,"brain tissue, lapatinib 100 mg/kg oral + 5 mg/kg elacridar (IE+L), second AUMC0-t line (r33)","57,148.33 ± 29,162.29 ng × h^2/mL"
same,MRT0-t,"brain tissue, lapatinib 100 mg/kg oral alone (IIL)",5.73 ± 0.06 h
same,AUMC0-t,"brain tissue, lapatinib 100 mg/kg oral alone (IIL), first AUMC0-t line (r32)",4792.63 ± 173.92 ng × h^2/mL
same,AUMC0-t,"brain tissue, lapatinib 100 mg/kg oral alone (IIL), second AUMC0-t line (r33)","17,455.77 ± 17,542.73 ng × h^2/mL"
same,"BT corr (BT homogenate), S",0.25 h,33.08 ng/mL
same,"BT corr (BT homogenate), single rat",0.25 h,35.46 ng/mL
same,"BT corr (BT homogenate), single rat","0.25 h, listed as Lapatinib",35.46 ng/mL
same,"BT corr (BT homogenate), S",0.5 h,43.57 ng/mL
same,"BT corr (BT homogenate), single rat",0.5 h,41.98 ng/mL
same,"BT corr (BT homogenate), single rat","0.5 h, listed as Lapatinib",41.98 ng/mL
same,"BT corr (BT homogenate), single rat",2 h,39.78 ng/mL and 102.9 ng/mL
same,"BT corr (BT homogenate), single rat","2 h, listed as Lapatinib",39.78 ng/mL and 102.90 ng/mL
same,"BT corr (BT homogenate), S",3 h,197.6723 ng/mL
same,"BT corr (BT homogenate), single rat",3 h,170.09 ng/mL and 225.26 ng/mL
same,"BT corr (BT homogenate), single rat","3 h, listed as Lapatinib",225.26 ng/mL
same,"BT corr (BT homogenate), S",4 h,85.05 ng/mL
same,"BT corr (BT homogenate), single rat",4 h,91.94 ng/mL
same,"BT corr (BT homogenate), S",6 h,85.7722 ng/mL
same,"BT corr (BT homogenate), single rat",6 h,84.2 ng/mL
same,"BT corr (BT homogenate), single rat","6 h, listed as Lapatinib",84.20 ng/mL
same,"BT corr (BT homogenate), S",8 h,85.02 ng/mL
same,"BT corr (BT homogenate), single rat",12 h,45.12 ng/mL
same,"BT corr (BT homogenate), single rat","12 h, listed as Lapatinib",45.12 ng/mL
same,"BT corr (BT homogenate), S",24 h,44.69 ng/mL
same,"BT corr (BT homogenate), single rat",24 h,36.68 ng/mL
same,"BT corr (BT homogenate), single rat","24 h, listed as Lapatinib",36.68 ng/mL
same,"BT corr (BT homogenate corrected), single rat",0.25 h,33.26 ng/mL
same,"BT corr (BT homogenate corrected), single rat","0.25 h, listed as Lapatinib",33.26 ng/mL
same,"BT corr (BT homogenate corrected), single rat",0.5 h,39.02 ng/mL
same,"BT corr (BT homogenate corrected), single rat","0.5 h, listed as Lapatinib",39.02 ng/mL
